The subject of one assay is S. aureus ATCC 13709. Briefly: MIC, S. aureus ATCC 13709. Conditions: S. aureus; Alamar Blue read after overnight incubation at 35° C. It is filed as cell-based. Background: Alamar Blue is a resazurin reagent that responds to reducing activity.
Another assay relates to E. coli ATCC 25922. As to the kind of experiment: MIC, E. coli ATCC 25922. It is filed as cell-based. To be noted: E. coli; Alamar Blue read after overnight incubation at 35° C.

We go through 24 compounds from patent publication US10865216B2, “Tricyclic Gyrase inhibitors” (MERCK SHARP & DOHME CORP., priority 2012, dated 2020).

Structures are written as SMILES. Converted amounts (≈) assume the structure as drawn.

Take `CNc1cc(F)cc2c1[nH]c1nc(Oc3cnc(N)nc3)nc(N3CC4CCC(N)C4C3)c12` (stereo not drawn) [Compound 4.189]: the “MIC Sa” value in the assay with S. aureus ATCC 13709 is at most 0.5 µg/mL. Moreover, the “MIC Ec” value with E. coli ATCC 25922 came out at 2 µg/mL (≈ 4.45 µM).
For the compound `CNc1cc(F)cc2c1[nH]c1nc(Oc3cnc(N)nc3)nc(N3CC4CC(N)C4C3)c12` (stereo not drawn) [Compound 4.190], the “MIC Sa” value against S. aureus ATCC 13709 is at most 0.5 µg/mL. Besides, in the assay on E. coli ATCC 25922, the “MIC Ec” value came to 1 µg/mL (≈ 2.3 µM).
The corresponding values for `CNc1cc(F)cc2c1[nH]c1nc(Oc3cnc(SC)nc3)nc(N3CC4C(N)C4C3)c12` (stereo not drawn) [Compound 4.193] are at most 0.5 µg/mL and at most 0.5 µg/mL.
The corresponding values for `CNc1cc(F)cc2c1[nH]c1nc(Oc3cnc(SC)nc3)nc(N3CCC4(CC4N)C3)c12` (stereo not drawn) [Compound 4.195] are at most 0.5 µg/mL and 1 µg/mL (≈ 2.14 µM).
On the same counts, the results for `CNc1cc(F)cc2c1[nH]c1nc(Oc3cnc(SC)nc3)nc(N3CC4CC(N)C4C3)c12` (stereo not drawn) [Compound 4.196] are at most 0.5 µg/mL and at most 0.5 µg/mL.
Consider `CNc1cc(F)cc2c1[nH]c1nc(Oc3cnc(SC)nc3)nc(N3CC4C(CN)C4C3)c12` (stereo not drawn) [Compound 4.197], for which, in the assay with S. aureus ATCC 13709, the “MIC Sa” value is at most 0.5 µg/mL. Moreover, the “MIC Ec” value in the assay with E. coli ATCC 25922 is at most 0.5 µg/mL.
`CNc1cc(F)cc2c1[nH]c1nc(Oc3cnc(SC)nc3)nc(N3CC4CCNC4C3)c12` (stereo not drawn) [Compound 4.198]: in the assay with S. aureus ATCC 13709, the “MIC Sa” value was at most 0.5 µg/mL. In the assay on E. coli ATCC 25922, the “MIC Ec” value is at most 0.5 µg/mL.
As to `CNc1cc(F)cc2c1[nH]c1nc(Oc3cnc(SC)nc3)nc(N3CCC(N)C3)c12` (stereo not drawn) [Compound 4.199], the “MIC Sa” value in the assay with S. aureus ATCC 13709 was at most 0.5 µg/mL. Further, the “MIC Ec” value in the assay on E. coli ATCC 25922 was at most 0.5 µg/mL.
As to `CNc1cc(F)cc2c1[nH]c1nc(Oc3cnc(SC)nc3)nc(N3CC4CCC(N)C4C3)c12` (stereo not drawn) [Compound 4.200], in the assay with S. aureus ATCC 13709, the “MIC Sa” value is at most 0.5 µg/mL. In the assay with E. coli ATCC 25922, the “MIC Ec” value is at most 0.5 µg/mL.
With `CNc1cc(F)cc2c1[nH]c1nc(Oc3cnc(SC)nc3)nc(N3CC4CC(N)C4C3)c12` (stereo not drawn) [Compound 4.201], the “MIC Sa” value against S. aureus ATCC 13709 is at most 0.5 µg/mL. Also, the “MIC Ec” value against E. coli ATCC 25922 is at most 0.5 µg/mL.
In the case of `CNc1cc(F)cc2c1[nH]c1nc(Oc3cnc(SC)nc3)nc(N3CC4(CC[C@H]4N)C3)c12` [Compound 4.202], the “MIC Sa” value against S. aureus ATCC 13709 is at most 0.5 µg/mL. In addition, in the assay on E. coli ATCC 25922, the “MIC Ec” value was at most 0.5 µg/mL.
For `CNc1cc(F)cc2c1[nH]c1nc(Oc3cnc(SC)nc3)nc(N3CCC4(C[C@H]4N)C3)c12` (stereo partly drawn) [Compound 4.203], the “MIC Sa” value against S. aureus ATCC 13709 is at most 0.5 µg/mL. Moreover, the “MIC Ec” value in the assay on E. coli ATCC 25922 is at most 0.5 µg/mL.
For the compound `CNc1cc(F)cc2c1[nH]c1nc(Oc3cncc(-c4cncnc4)c3)nc(N3CC4C(N)C4C3)c12` (stereo not drawn) [Compound 4.205], the “MIC Sa” value against S. aureus ATCC 13709 is at most 0.5 µg/mL. Besides, the “MIC Ec” value against E. coli ATCC 25922 was at most 0.5 µg/mL.
Consider `CNc1cc(F)cc2c1[nH]c1nc(Oc3cncc(-c4cn[nH]c4)c3)nc(N3CC4C(N)C4C3)c12` (stereo not drawn) [Compound 4.206], for which the “MIC Sa” value against S. aureus ATCC 13709 is at most 0.5 µg/mL. Moreover, the “MIC Ec” value with E. coli ATCC 25922 came to 4 µg/mL (≈ 8.48 µM).
On the same counts, the results for `CNc1cc(F)cc2c1[nH]c1nc(Oc3cnc(N(C)C)nc3)nc(N3CC[C@@H](N)C3)c12` [Compound 4.207] are at most 0.5 µg/mL and at most 0.5 µg/mL.
The corresponding values for `CNc1cc(F)cc2c1[nH]c1nc(Oc3cnc(N(C)C)nc3)nc(N3CC4C(N)C4C3)c12` (stereo not drawn) [Compound 4.208] are at most 0.5 µg/mL and at most 0.5 µg/mL.
Regarding `CNc1cc(F)cc2c1[nH]c1nc(Oc3cnc(N(C)C)nc3)nc(N3CC(N)C4(CC4)C3)c12` (stereo not drawn) [Compound 4.209], the “MIC Sa” value against S. aureus ATCC 13709 is at most 0.5 µg/mL. Also, the “MIC Ec” value against E. coli ATCC 25922 is at most 0.5 µg/mL.
`CNc1cc(F)cc2c1[nH]c1nc(Oc3cncc(-c4nnn(C)n4)c3)nc(N3CC4C(N)C4C3)c12` (stereo not drawn) [Compound 4.210]: in the assay on S. aureus ATCC 13709, the “MIC Sa” value is at most 0.5 µg/mL. For the same compound, in the assay with E. coli ATCC 25922, the “MIC Ec” value turned out to be 1 µg/mL (≈ 2.05 µM).
On the same counts, the results for `CNc1cc(F)cc2c1[nH]c1nc(Oc3cnc(N4CCOCC4)nc3)nc(N3CC4C(N)C4C3)c12` (stereo not drawn) [Compound 4.211] are 16 µg/mL (≈ 32.6 µM) and above 16 µg/mL.
Take `CNc1cc(F)cc2c1[nH]c1nc(Oc3cnc(N4CCOCC4)nc3)nc(N3CC[C@@H](N)C3)c12` [Compound 4.212]: the “MIC Sa” value against S. aureus ATCC 13709 is at most 0.5 µg/mL. Moreover, in the assay on E. coli ATCC 25922, the “MIC Ec” value is at most 0.5 µg/mL.
Take `CNc1cc(F)cc2c1[nH]c1nc(Oc3cnc(N4CCOCC4)nc3)nc(N3CC(N)C4(CC4)C3)c12` (stereo not drawn) [Compound 4.213]: in the assay with S. aureus ATCC 13709, the “MIC Sa” value is at most 0.5 µg/mL. Also, the “MIC Ec” value with E. coli ATCC 25922 amounted to 1 µg/mL (≈ 1.98 µM).
Consider `CNc1cc(F)cc2c1[nH]c1nc(Oc3cnc(N4CCOCC4)nc3)nc(N3CCC4(CC4N)C3)c12` (stereo not drawn) [Compound 4.214], for which the “MIC Sa” value in the assay on S. aureus ATCC 13709 was at most 0.5 µg/mL. In addition, the “MIC Ec” value in the assay with E. coli ATCC 25922 turned out to be 2 µg/mL (≈ 3.96 µM).
Turning to `CNc1cc(F)cc2c1[nH]c1nc(Oc3cnc(N4CCOCC4)nc3)nc(N3CCC(CN)C3)c12` (stereo not drawn) [Compound 4.215], the “MIC Sa” value against S. aureus ATCC 13709 was at most 0.5 µg/mL. Moreover, in the assay on E. coli ATCC 25922, the “MIC Ec” value was found to be 4 µg/mL (≈ 8.1 µM).
Take `CNc1ncc(Oc2nc(N3C[C@H](N)C4(CC4)C3)c3c(n2)[nH]c2c(NC)cc(F)cc23)cn1` [Compound 4.216]: in the assay on S. aureus ATCC 13709, the “MIC Sa” value was at most 0.5 µg/mL. In addition, the “MIC Ec” value in the assay with E. coli ATCC 25922 was at most 0.5 µg/mL.
